According to PubChem BioAssay AID1259407 (Chemical Carcinogenesis Research Information System (CCRIS), 2018):
Activity calls are given as the source filed them. How the calls were made is not given here.

System: CCRIS mutagenicity, Ames/micronucleus/aberration tests
Test: CCRIS mutagenicity studies
[1] = Test System: AMES SALMONELLA TYPHIMURIUM, Strain/Indicator: TA98, Metabolic Activation: NONE, Method: PREINCUBATION
[2] = Test System: AMES SALMONELLA TYPHIMURIUM, Strain/Indicator: TA98, Metabolic Activation: NONE, Method: STANDARD PLATE
[3] = Test System: AMES SALMONELLA TYPHIMURIUM, Strain/Indicator: TA100, Metabolic Activation: NONE, Method: PREINCUBATION
[4] = Test System: AMES SALMONELLA TYPHIMURIUM, Strain/Indicator: TA100, Metabolic Activation: NONE, Method: STANDARD PLATE

## Clc1cccc(Cl)c1
Test System: AMES SALMONELLA TYPHIMURIUM, Strain/Indicator: TA98, Metabolic Activation: HAMSTER, LIVER, S-9, AROCLOR 1254, Method: PREINCUBATION
  mutagenic call: inactive; negative
[1]
  mutagenic call: inactive; negative
[2]
  mutagenic call: inactive; negative
Test System: AMES SALMONELLA TYPHIMURIUM, Strain/Indicator: TA98, Metabolic Activation: RAT, LIVER, S-9, AROCLOR 1254, Method: PREINCUBATION
  mutagenic call: inactive; negative
Test System: AMES SALMONELLA TYPHIMURIUM, Strain/Indicator: TA98, Metabolic Activation: RAT, LIVER, S-9, AROCLOR, Method: STANDARD PLATE
  mutagenic call: inactive; negative
Test System: AMES SALMONELLA TYPHIMURIUM, Strain/Indicator: TA100, Metabolic Activation: HAMSTER, LIVER, S-9, AROCLOR 1254, Method: PREINCUBATION
  mutagenic call: inactive; negative
[3]
  mutagenic call: inactive; negative
[4]
  mutagenic call: inactive; negative
Test System: AMES SALMONELLA TYPHIMURIUM, Strain/Indicator: TA100, Metabolic Activation: RAT, LIVER, S-9, AROCLOR 1254, Method: PREINCUBATION
  mutagenic call: inactive; negative
Test System: AMES SALMONELLA TYPHIMURIUM, Strain/Indicator: TA100, Metabolic Activation: RAT, LIVER, S-9, AROCLOR, Method: STANDARD PLATE
  mutagenic call: inactive; negative
Test System: AMES SALMONELLA TYPHIMURIUM, Strain/Indicator: TA1535, Metabolic Activation: HAMSTER, LIVER, S-9, AROCLOR 1254, Method: PREINCUBATION
  mutagenic call: inactive; negative
Test System: AMES SALMONELLA TYPHIMURIUM, Strain/Indicator: TA1535, Metabolic Activation: NONE, Method: PREINCUBATION
  mutagenic call: inactive; negative
Test System: AMES SALMONELLA TYPHIMURIUM, Strain/Indicator: TA1535, Metabolic Activation: RAT, LIVER, S-9, AROCLOR 1254, Method: PREINCUBATION
  mutagenic call: inactive; negative
Test System: AMES SALMONELLA TYPHIMURIUM, Strain/Indicator: TA1537, Metabolic Activation: HAMSTER, LIVER, S-9, AROCLOR 1254, Method: PREINCUBATION
  mutagenic call: inactive; negative
Test System: AMES SALMONELLA TYPHIMURIUM, Strain/Indicator: TA1537, Metabolic Activation: NONE, Method: PREINCUBATION
  mutagenic call: inactive; negative
Test System: AMES SALMONELLA TYPHIMURIUM, Strain/Indicator: TA1537, Metabolic Activation: RAT, LIVER, S-9, AROCLOR 1254, Method: PREINCUBATION
  mutagenic call: inactive; negative
Test System: AMES SALMONELLA TYPHIMURIUM, Strain/Indicator: UTH8413, Metabolic Activation: NONE, Method: STANDARD PLATE
  mutagenic call: inactive; negative
Test System: AMES SALMONELLA TYPHIMURIUM, Strain/Indicator: UTH8413, Metabolic Activation: RAT, LIVER, S-9, AROCLOR, Method: STANDARD PLATE
  mutagenic call: inactive; negative
Test System: AMES SALMONELLA TYPHIMURIUM, Strain/Indicator: UTH8414, Metabolic Activation: NONE, Method: STANDARD PLATE
  mutagenic call: inactive; negative
Test System: AMES SALMONELLA TYPHIMURIUM, Strain/Indicator: UTH8414, Metabolic Activation: RAT, LIVER, S-9, AROCLOR, Method: STANDARD PLATE
  mutagenic call: inactive; negative

## CCCCCCCCCCCC[N+](C)(C)COCCCCCCCC
Test System: BACILLUS SUBTILIS, Strain/Indicator: H17/REC, Metabolic Activation: NONE, Method: STANDARD PLATE
  mutagenic call: inactive; negative
Test System: BACILLUS SUBTILIS, Strain/Indicator: M45, Metabolic Activation: NONE, Method: STANDARD PLATE
  mutagenic call: inactive; negative

## Fc1cccc2c1ccc1ncccc12
Test System: AMES SALMONELLA TYPHIMURIUM, Strain/Indicator: TA100, Metabolic Activation: RAT, LIVER, S-9, PHENOBARBITAL AND 5,6-BENZOFLAVONE, Method: PREINCUBATION
  mutagenic call: active; positive

## COC(=O)N[C@H]1[C@H](O[C@H]2[C@H](O)[C@@H](N)[C@H](O[C@H]3[C@H](O)[C@@H](N)[C@H](O)O[C@@H]3CO)O[C@@H]2CO)O[C@H](CO)[C@@H](O[C@@H]2O[C@H](CO)[C@@H](O[C@@H]3O[C@H](CO)[C@@H](O[C@@H]4O[C@H](CO)[C@@H](O[C@@H]5O[C@H](CO)[C@@H](O[C@@H]6O[C@H](CO)[C@@H](O[C@@H]7O[C@H](CO)[C@@H](O)[C@H](O)[C@H]7N)[C@H](O)[C@H]6N)[C@H](O)[C@H]5N)[C@H](O)[C@H]4N)[C@H](O)[C@H]3N)[C@H](O)[C@H]2N)[C@@H]1O
End Point: IN VIVO CHROMOSOMAL ABERRATIONS, Test System: BONE MARROW CELLS (LYMPHOCYTES), Species: MOUSE, Strain/Sex: ICR/MALE, Route: DRINKING WATER
  mutagenic call: inactive; negative
End Point: IN VIVO CHROMOSOMAL ABERRATIONS, Test System: BONE MARROW, Species: MOUSE, Strain/Sex: ICR/MALE, Route: DRINKING WATER
  mutagenic call: inactive; negative
End Point: IN VIVO CHROMOSOMAL ABERRATIONS, Test System: BONE MARROW, Species: MOUSE, Strain/Sex: ICR/PARENT, F1, F2, F3 GENERATIONS, Strain/Sex: ICR/PARENT, F1, F2, F3 GENERATIONS, Route: DRINKING WATER
  mutagenic call: inactive; negative in all generations
End Point: IN VIVO MICRONUCLEUS, Test System: BONE MARROW POLYCHROMATIC ERYTHROCYTES, Species: MOUSE, Strain/Sex: ICR/MALE, Route: DRINKING WATER
  mutagenic call: inactive; negative

## Cc1c2cccc(F)c2c(C)c2c1ccc1ccccc12
Test System: CHINESE HAMSTER V-79, Strain/Indicator: V-79/OUABAIN, Metabolic Activation: CELL-MEDIATED, Method: STANDARD PLATE
  mutagenic call: active; positive

## C1CN1c1nc(N2CC2)nc(N2CC2)n1
[2]
  mutagenic call: active; positive
[4]
  mutagenic call: active; positive
Test System: CHINESE HAMSTER V-79, Strain/Indicator: V-79/6-THIOGUANINE, Metabolic Activation: NONE, Method: FLASK ASSAY
  mutagenic call: active; positive
Test System: E. COLI, Strain/Indicator: WP2 (HCR), Metabolic Activation: NONE, Method: STANDARD PLATE
  mutagenic call: active; positive

## C=C(C)C(=O)OCC(CC)(COC(=O)C(=C)C)COC(=O)C(=C)C
Test System: AMES SALMONELLA TYPHIMURIUM, Strain/Indicator: TA98, Metabolic Activation: HAMSTER, LIVER, S-9, AROCLOR 1254, Method: STANDARD PLATE
  mutagenic call: inactive; negative
[2]
  mutagenic call: inactive; negative
Test System: AMES SALMONELLA TYPHIMURIUM, Strain/Indicator: TA98, Metabolic Activation: RAT, LIVER, S-9, AROCLOR 1254, Method: STANDARD PLATE
  mutagenic call: inactive; negative
Test System: AMES SALMONELLA TYPHIMURIUM, Strain/Indicator: TA100, Metabolic Activation: HAMSTER, LIVER, S-9, AROCLOR 1254, Method: STANDARD PLATE
  mutagenic call: inactive; negative
[4]
  mutagenic call: inactive; negative
Test System: AMES SALMONELLA TYPHIMURIUM, Strain/Indicator: TA100, Metabolic Activation: RAT, LIVER, S-9, AROCLOR 1254, Method: STANDARD PLATE
  mutagenic call: inactive; negative
Test System: AMES SALMONELLA TYPHIMURIUM, Strain/Indicator: TA1535, Metabolic Activation: HAMSTER, LIVER, S-9, AROCLOR 1254 (5-10%), Method: STANDARD PLATE
  mutagenic call: inactive; negative
Test System: AMES SALMONELLA TYPHIMURIUM, Strain/Indicator: TA1535, Metabolic Activation: HAMSTER, LIVER, S-9, AROCLOR 1254 (15-20%), Method: STANDARD PLATE
  mutagenic call: active; positive
Test System: AMES SALMONELLA TYPHIMURIUM, Strain/Indicator: TA1535, Metabolic Activation: HAMSTER, LIVER, S-9, AROCLOR 1254, Method: STANDARD PLATE
  mutagenic call: active; positive
Test System: AMES SALMONELLA TYPHIMURIUM, Strain/Indicator: TA1535, Metabolic Activation: NONE, Method: STANDARD PLATE
  mutagenic call: inactive; negative
Test System: AMES SALMONELLA TYPHIMURIUM, Strain/Indicator: TA1535, Metabolic Activation: RAT, LIVER, S-9, AROCLOR 1254, Method: STANDARD PLATE
  mutagenic call: inactive; negative
Test System: AMES SALMONELLA TYPHIMURIUM, Strain/Indicator: TA1537, Metabolic Activation: HAMSTER, LIVER, S-9, AROCLOR 1254, Method: STANDARD PLATE
  mutagenic call: inactive; negative
Test System: AMES SALMONELLA TYPHIMURIUM, Strain/Indicator: TA1537, Metabolic Activation: NONE, Method: STANDARD PLATE
  mutagenic call: inactive; negative
Test System: AMES SALMONELLA TYPHIMURIUM, Strain/Indicator: TA1537, Metabolic Activation: RAT, LIVER, S-9, AROCLOR 1254, Method: STANDARD PLATE
  mutagenic call: inactive; negative

## CC(c1ccccc1)N(C)C (stereo not given)
[1]
  mutagenic call: inactive; negative
Test System: AMES SALMONELLA TYPHIMURIUM, Strain/Indicator: TA98, Metabolic Activation: RAT, LIVER, S-9, PCB, Method: PREINCUBATION
  mutagenic call: inactive; negative
[3]
  mutagenic call: inactive; negative
Test System: AMES SALMONELLA TYPHIMURIUM, Strain/Indicator: TA100, Metabolic Activation: RAT, LIVER, S-9, PCB, Method: PREINCUBATION
  mutagenic call: inactive; negative
